# According to US7119102B2, “Substituted 3-amino-thieno[2,3-b]pyridine-2-carboxylic acid amide compounds and processes for preparing and their uses” (Boehringer Ingelheim Pharmaceuticals, Inc., priority 2003, dated 2006):
row,SMILES,melting point
1,"NC(=O)c1sc2nc(N3CCC(NCC(O)c4cccnc4)CC3)cc(C(F)(F)F)c2c1N (centres unmarked) [Example 9, 3-Amino-6-[4-(2-hydroxy-2-pyridin-3-yl-ethylamino)-piperidin-1-yl]-4-trifluoromethyl-thieno[2,3-b]pyridine-2-carboxylic acid amide]",179 to 181 °C
2,"NC(=O)c1sc2nc(N3CCC(NC[C@@H](O)c4ccccn4)CC3)cc(C(F)(F)F)c2c1N [Example 22, 3-Amino-6-[4-((R)-2-hydroxy-2-pyridin-2-yl-ethylamino)-piperidin-1-yl]-4-trifluoromethyl-thieno[2,3-b]pyridine-2-carboxylic acid amide]",165 to 167 °C
3,"CCCc1cc(N2CCC(NCC(O)c3cnc4ccccc4c3)CC2)nc2sc(C(N)=O)c(N)c12 (centres unmarked) [Example 8, 3-Amino-6-[4-(2-hydroxy-2-quinolin-3-yl-ethylamino)-piperidin-1-yl]-4-propyl-thieno[2,3-b]pyridine-2-carboxylic acid amide]",213 to 216 °C
4,"NC(=O)c1sc2nc(N3CCC(NCC(O)c4ccc5ccccc5n4)CC3)cc(C(F)(F)F)c2c1N (centres unmarked) [Example 10, 3-Amino-6-[4-(2-hydroxy-2-quinolin-2-yl-ethylamino)-piperidin-1-yl]-4-trifluoromethyl-thieno[2,3-b]pyridine-2-carboxylic acid amide]",198 to 201 °C
5,"CCCc1cc(N2CCC(NCC(O)c3cc4ccccc4cn3)CC2)nc2sc(C(N)=O)c(N)c12 (centres unmarked) [Example 11, 3-Amino-6-[4-(2-hydroxy-2-isoquinolin-3-yl-ethylamino)-piperidin-1-yl]-4-propyl-thieno[2,3-b]pyridine-2-carboxylic acid amide]",213 to 215 °C (dec.)
